Measurements taken from patent publication US7109341B2, “Therapeutic amides” (Wayne State University, priority 2002, dated 2006).
Several values for one entry are separate records, joined by “and”; a condition that tells them apart may be missing. Equal values may be shown once. Entries after “also recorded” stand apart in the source; their conditions may differ. Read-outs that look alike come from different tables or passages of the source.

Experiments:
[1] = test system: Pancreatic Ductal Adenocarcinoma 03;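 also: mice carrying bilateral subcutaneous tumors, with tumor weight estimated from two-dimensional caliper readings taken twice a week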
Text: Pancreatic ductal adenocarcinoma-03, mammary adenocarcinoma-16/C, mammary adenocarcinoma-17/Adr, and human melanoma LOX were used in the studies. Tumors were maintained in the mouse strain of origin (C57B1/6 for Panc-03 and C3H for the mammary tumors). Balb/c SCID mice (B and T cell deficient) were used for tumor maintenance and chemotherapy trials involving the human melanoma LOX. Tumors were transplanted into the appropriate F1 hybrid (B6D2F1=C57B 1/6 female× DBA/2 male) or the strain of origin for the chemotherapy trials. Individual mouse body weights for each experiment were within 5 grams, and all mice were over 17 grams at the start of therapy. The mice were supplied food and water ad libitum.
Animals were pooled, implanted subcutaneously with 30 to 60 mg tumor fragments by a 12 gauge trocar on day 0, and again pooled before unselective distribution to the various treatment and control groups. For early stage treatment, chemotherapy was started within 1 to 3 days after tumor implantation while the number of cells was relatively small (10^7 to 10^8 cells). For upstaged or advanced staged trials, the tumors were allowed to grow for five or more days before treatment was started. Tumors were measured with a caliper twice weekly. […] Tumor weights are estimated from two-dimensional measurements:
Tumor weight (in mg)=(a×b^2)/2, where a and b are the tumor length and width in (mm), respectively.
a) Tumor growth delay (T−C value), where T is the median time (in days) required for the treatment group tumors to reach a predetermined size (e.g., 1,000 mg), and C is the median time (in days) for the control group tumors to reach the same size. Tumor-free survivors were are excluded from these calculations (cures are tabulated separately). This value is an important criterion of anti-tumor effectiveness because it allows the quantification of tumor cell kill.
b) Calculation of tumor cell kill for subcutaneously (SC) growing tumors. […] The conversion of the T−C values to log10 cell kill is possible because the Td of tumors re-growing post treatment (Rx) approximates the Td values of the tumors in untreated control mice.
It should be noted that an activity rating of +++ to ++++ is needed to effect partial regression (PR) or complete regression (CR) of 100 to 300 mg size masses of most transplanted solid tumors of mice. Thus, an activity rating of + or ++ would not be scored as active by usual clinical criteria. A PR is a reduction in tumor mass to less than 50% of pretreatment size. A CR is a reduction in tumor mass to below palpable size (i.e., reduction to zero detectable mass).
The T/C value in percent is an indication of anti-tumor effectiveness: A T/C=0% means no tumor growth. A T/C=100% means no anti-tumor activity, i.e., the treated and control tumors grew equally. […] A T/C value<10% is considered to indicate highly significant anti-tumor activity, and is the level used by NCI to justify a clinical trial if toxicity, formulation, and certain other requirements are met (termed DN-2 level activity).
(§1) Compounds as their sodium salts were prepared in a 1% sodium bicarbonate solution, H2O or phosphate buffered saline (PBS), with pH adjusted to 7.0 to 7.5 with HCl, and administered intravenously (IV) or orally (PO), at injection volumes of 0.2 mL per injection.
Thus, for this test, all compounds initially were to be given IP, in an attempt to identify a suitable alternate route of administration.

[2] = Water solubility noted on drug preparation for injection; assay type: physicochemical; conditions: for Preparation: state of the injection preparation: white solid + 3% EtOH + 1% POE + 0.25% NaHCO3 + saline, pH = 8.0
Experimental: as §1

[3] = Cage 8, 135 mg/kg IP day 3, then SC days 5, 7, 11, 13, 15, total 615 mg/kg
[4] = Cage 9, IP, 80 mg/kg/inj days 3, 5, 7, 11, 13, 15, total 480 mg/kg
[5] = Cage 10, IP, 50 mg/kg/inj Q2d×7 from day 3, total 350 mg/kg
[6] = IP d 3 then SC d5, 7, 11, 13, 15, total dosage 615 mg/kg, BDF1 males
[7] = IP, Q2d: 3–15, total dosage 350 mg/kg, BDF1 males
[8] = IP, d3, 5, 7, 11, 13, 15, total dosage 480 mg/kg, BDF1 males
[9] = Cage 2, IP, 135 mg/kg day 3 only
[10] = Cage 3, IP, 80 mg/kg day 3 only
[11] = Cage 4, 50 mg/kg IP day 3, then IV Q2d×7 through day 15, total 455 mg/kg
[12] = IP d3 then IV Q2d: 5–15, total dosage 455 mg/kg, BDF1 males
[13] = IP, d 3, total dosage 80 mg/kg, BDF1 males
[14] = IP, d 3, total dosage 135 mg/kg, BDF1 males

**Q.** With CC(Oc1ccc(Oc2ccc3ccc(Br)cc3n2)cc1)C(=O)NCC(=O)O [Compound 14h (R), {2-[4-(7-Bromo-quinolin-2-yloxy)-phenoxy]-propionylamino}acetic acid] as the molecule, how does the Activity Rating [1, 3] read?
**A.** The Activity Rating was “++ (1.3–1.9)”.

**Q.** And the T/C [1, 3]?
**A.** The T/C was 3%.

**Q.** What about the log cell kill [1, 3] of the same molecule?
**A.** The log cell kill was 1.9.

**Q.** What about the T/C [1, 4] of the same molecule?
**A.** The T/C was 6%.

**Q.** And the log cell kill [1, 4]?
**A.** The log cell kill was 1.7.

**Q.** And the Activity Rating [1, 5]?
**A.** Its Activity Rating is “+ (0.7–1.2)”.

**Q.** What about the T/C [1, 5] of the same molecule?
**A.** The T/C was 16.5%.

**Q.** What about the log kill [1, 5] of the same molecule?
**A.** The log kill was 1.0.

**Q.** And the “Comments (Active/Inactive)” value [1, 6]?
**A.** Its value is “Inactive”.

**Q.** What about the “Comments (activity rating)” value [1, 6] of the same molecule?
**A.** Its value is “(++) (1.3–1.9)”.

**Q.** What about the “Drug Death” value [1, 6] of the same molecule?
**A.** Its value is 0/5.

**Q.** And the “Log Cell Kill” value [1, 6]?
**A.** Its value is 1.9.

**Q.** And the “Median Tumor Burden in mg on d17” value [1, 6]?
**A.** The value was 63 mg.

**Q.** What about the “T-C” value [1, 6] of the same molecule?
**A.** The value was 13 days.

**Q.** What about the T/C % [1, 6] of the same molecule?
**A.** The T/C % was 3%.

**Q.** What about the “Time to 1000 mg” value [1, 6] of the same molecule?
**A.** Its value is 28 days.

**Q.** What about the “Tumor Free on 148” value [1, 6] of the same molecule?
**A.** The value was 0/5.

**Q.** What about the “Comments (Active/Inactive)” value [1, 7] of the same molecule?
**A.** Its value is “Active”.

**Q.** What about the “Comments (activity rating)” value [1, 7] of the same molecule?
**A.** The value was “(+) (0.7–1.2)”.

**Q.** What about the “Drug Death” value [1, 7] of the same molecule?
**A.** Its value is 0/5.

**Q.** And the “Log Cell Kill” value [1, 7]?
**A.** The value was 1.0.

**Q.** And the “Median Tumor Burden in mg on d17” value [1, 7]?
**A.** The value was 304 mg.

**Q.** And the “T-C” value [1, 7]?
**A.** The value was 7 days.

**Q.** What about the T/C % [1, 7] of the same molecule?
**A.** Its T/C % is 16.5%.

**Q.** What about the “Time to 1000 mg” value [1, 7] of the same molecule?
**A.** The value was 22 days.

**Q.** What about the “Tumor Free on 148” value [1, 7] of the same molecule?
**A.** Its value is 0/5.

**Q.** What about the “Comments (Active/Inactive)” value [1, 8] of the same molecule?
**A.** Its value is “Active”.

**Q.** And the “Comments (activity rating)” value [1, 8]?
**A.** The value was “(++) (1.3–1.9)”.

**Q.** And the “Drug Death” value [1, 8]?
**A.** Its value is 0/5.

**Q.** And the “Log Cell Kill” value [1, 8]?
**A.** The value was 1.7.

**Q.** And the “Median Tumor Burden in mg on d17” value [1, 8]?
**A.** Its value is 108 mg.

**Q.** What about the “T-C” value [1, 8] of the same molecule?
**A.** The value was 12 days.

**Q.** And the T/C % [1, 8]?
**A.** Its T/C % is 6%.

**Q.** And the “Time to 1000 mg” value [1, 8]?
**A.** Its value is 27 days.

**Q.** And the “Tumor Free on 148” value [1, 8]?
**A.** Its value is 0/5.

**Q.** And the “Day of Wt. Loss Nadir” value ([1]; mouse, in vivo)?
**A.** Its value is 9 days and 10 days and 8 days.

**Q.** And the “day of full weight recovery” value ([1]; mouse, in vivo)?
**A.** Its value is 20 days and 15 days.

**Q.** What about the “day of weight loss nadir” value ([1]; mouse, in vivo) of the same molecule?
**A.** Its value is 9 days and 10 days and 8 days.

**Q.** What about the weight loss nadir ([1]; mouse, in vivo) of the same molecule?
**A.** Its weight loss nadir is −13.3%.

**Q.** What about the water solubility [2] of the same molecule?
**A.** Its water solubility is “Low water solubility limits; also recorded: much lower water solubility”.

**Q.** What about the “Preparation: state of the injection preparation” value [2] of the same molecule?
**A.** The value was “Compound 14h (R): white solid + 3% EtOH + 1% POE + 0.25% NaHCO3 + saline → suspension (pH = 8.0); 0.5 ml/mouse/inj, IP; 0.2 ml/mouse/inj, SC”.

**Q.** What does the source list for CC(Oc1ccc(Oc2cnc3ccc(Cl)cc3n2)cc1)C(=O)NCC(=O)O [Compound 14i (R), {2-{4-(7-Chloro-quinoxalin-2-yloxy)-phenoxy}propionylamino}acetic acid]?
**A.** Activity Rating [1, 9]: + (0.7–1.2); T/C [1, 9]: 10%; log cell kill [1, 9]: 1.1; Activity Rating [1, 10]: + (0.7–1.2); T/C [1, 10]: 37%; day of death [1, 10]: 4 days; deaths [1, 10]: one injection death; log kill [1, 10]: 0.7; Activity Rating [1, 11]: ++ (1.3–1.9); T/C [1, 11]: 10% and 8%; day of full weight recovery [1, 11]: ≤ 11 days; day of weight loss nadir [1, 11]: 7 days; log kill [1, 11]: 1.6; Comments (Active/Inactive) [1, 12]: Active; Comments (activity rating) [1, 12]: (++) (1.3–1.9); Drug Death [1, 12]: 0/5; Log Cell Kill [1, 12]: 1.6; Median Tumor Burden in mg on d17 [1, 12]: 151 mg; T-C [1, 12]: 11 days; T/C % [1, 12]: 8%; Time to 1000 mg [1, 12]: 26 days; Tumor Free on 148 [1, 12]: 0/5; Comments (Active/Inactive) [1, 13]: Active; Comments (activity rating) [1, 13]: (+) (0.7–1.2); Drug Death [1, 13]: 1/5; Drug Death (day of death) [1, 13]: (d4); Log Cell Kill [1, 13]: 0.7; Median Tumor Burden in mg on d17 [1, 13]: 675 mg; T-C [1, 13]: 5 days; T/C % [1, 13]: 37%; Time to 1000 mg [1, 13]: 20 days; Tumor Free on 148 [1, 13]: 0/5; Comments (Active/Inactive) [1, 14]: Active; Comments (activity rating) [1, 14]: (+) (0.7–1.2); Drug Death [1, 14]: 0/5; Log Cell Kill [1, 14]: 1.1; Median Tumor Burden in mg on d17 [1, 14]: 189 mg; T-C [1, 14]: 7.5 days; T/C % [1, 14]: 10%; Time to 1000 mg [1, 14]: 22.5 days; Tumor Free on 148 [1, 14]: 0/5; Day of Wt. Loss Nadir ([1]; mouse, in vivo): 7 days and 4 days; day of full weight recovery ([1]; mouse, in vivo, ip, 135 mg/kg): ≤ 9 days; day of weight loss nadir ([1]; mouse, in vivo, ip, 135 mg/kg): 7 days; toxicity observations ([1]; mouse, in vivo, ip, 135 mg/kg): prolonged pain response; water solubility [2]: good water solubility; Preparation: state of the injection preparation [2]: Compound 14i (R): white solid + 3% EtOH + 1% POE + 0.25% NaHCO3 + saline → solution (pH = 8.0); 0.5 ml/mouse/inj, IP; 0.2 ml/mouse/inj, IV.
